Results from ChEMBL document CHEMBL1201862, “PubChem BioAssay data set” (2004).
“And” between values parts separate entries of the source, which are not always exact repeats. Identical values can stand only once.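 Method: 48-hour compound exposure of cells in 96-well plates, five concentrations, linear interpolation of endpoints. GI50: concentration for 50% inhibition of growth.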 The source made the active and inactive calls. Rule as the data show it: active = GI50 up to about 1.1 µM and inactive = higher.

How the values were obtained:
Experiment in all cases: DTP human tumour cell line panel, 48 h
[1] = test system: UACC-257
[2] = test system: MDA-MB-231
[3] = test system: SNB-19
[4] = test system: SN12C
[5] = test system: 786-0
[6] = test system: OVCAR-5
[7] = test system: SK-MEL-28
[8] = test system: COLO 205
[9] = test system: MCF7
[10] = test system: K562
[11] = test system: IGROV-1
[12] = test system: MDA-N
[13] = test system: HCT-116
[14] = test system: LOX IMVI
[15] = test system: T47D
[16] = test system: RPMI-8226
[17] = test system: OVCAR-3
[18] = test system: PC-3
[19] = test system: SF-539
[20] = test system: SK-MEL-5
[21] = test system: UO-31
[22] = test system: NCI-H522
[23] = test system: SR
[24] = test system: CAKI-1
[25] = test system: MDA-MB-435
[26] = test system: DU-145
[27] = test system: MOLT-4
[28] = test system: HCT-15
[29] = test system: SK-MEL-2
[30] = test system: SW-620
[31] = test system: A498
[32] = test system: NCI-H460
[33] = test system: HCC 2998
[34] = test system: A549
[35] = test system: OVCAR-8
[36] = test system: HL-60
[37] = test system: Hs-578T
[38] = test system: Malme-3M
[39] = test system: NCI-H226
[40] = test system: HT-29
[41] = test system: ACHN
[42] = test system: M14
[43] = test system: OVCAR-4
[44] = test system: KM12
[45] = test system: TK-10
[46] = test system: CCRF-CEM
[47] = test system: RXF 393
[48] = test system: SF-268
[49] = test system: SNB-75
[50] = test system: HOP-62
[51] = test system: NCI/ADR-RES
[52] = test system: U-251
[53] = test system: SF-295
[54] = test system: SK-OV-3
[55] = test system: EKVX
[56] = test system: NCI-H23
[57] = test system: UACC-62

## O=[N+]([O-])c1ccc(/N=N/c2c(O)ccc3ccccc23)cc1
[1]
  GI50: > 100 µM (inactive)
[2]
  GI50: > 100 µM (inactive)
[3]
  GI50: > 100 µM (inactive)
[4]
  GI50: > 100 µM (inactive)
[5]
  GI50: > 100 µM (inactive)
[6]
  GI50: > 100 µM (inactive) and 65.2 µM (inactive)
[7]
  GI50: > 100 µM (inactive)
[8]
  GI50: > 100 µM (inactive)
[9]
  GI50: > 100 µM (inactive)
[10]
  GI50: > 100 µM (inactive)
[11]
  GI50: 19.4 µM (inactive) and > 32 µM (inactive)
[12]
  GI50: > 100 µM (inactive)
[13]
  GI50: > 100 µM (inactive)
[14]
  GI50: > 100 µM (inactive)
[15]
  GI50: > 100 µM (inactive)
[16]
  GI50: > 100 µM (inactive)
[17]
  GI50: 50.5 µM (inactive)
[18]
  GI50: 73.5 µM (inactive)
[19]
  GI50: > 100 µM (inactive)
[20]
  GI50: > 100 µM (inactive)
[21]
  GI50: > 100 µM (inactive) and 98.4 µM (inactive)
[22]
  GI50: 293 nM (active)
[23]
  GI50: > 22.2 µM (inactive) and 21.2 µM (inactive)
[24]
  GI50: > 100 µM (inactive)
[25]
  GI50: > 100 µM (inactive)
[26]
  GI50: > 100 µM (inactive)
[27]
  GI50: 95.1 µM (inactive)
[28]
  GI50: > 100 µM
[29]
  GI50: 84.9 µM (inactive)
[30]
  GI50: > 100 µM (inactive)
[31]
  GI50: > 100 µM (inactive)
[32]
  GI50: > 100 µM (inactive)
[33]
  GI50: > 100 µM (inactive)

## N#Cc1ccc(-c2ccc(Cl)cc2)n(C2OC(CO)C(O)C(O)C2O)c1=S (centres undefined)
[1]
  GI50: > 100 µM (inactive)
[2]
  GI50: > 100 µM (inactive)
[34]
  GI50: > 100 µM (inactive)
[4]
  GI50: > 100 µM (inactive)
[6]
  GI50: > 100 µM (inactive)
[7]
  GI50: > 100 µM (inactive)
[35]
  GI50: > 100 µM (inactive)
[36]
  GI50: > 100 µM (inactive)
[37]
  GI50: > 100 µM (inactive)
[9]
  GI50: 62.4 µM (inactive)
[10]
  GI50: > 100 µM (inactive)
[12]
  GI50: > 100 µM (inactive)
[13]
  GI50: > 100 µM (inactive) and 86.1 µM (inactive)
[14]
  GI50: > 100 µM (inactive)
[15]
  GI50: > 100 µM (inactive)
[16]
  GI50: > 100 µM (inactive)
[17]
  GI50: > 100 µM (inactive)
[18]
  GI50: > 100 µM (inactive)
[19]
  GI50: > 100 µM (inactive)
[38]
  GI50: > 100 µM (inactive)
[20]
  GI50: > 100 µM (inactive) and 98.6 µM (inactive)
[21]
  GI50: > 100 µM (inactive)
[23]
  GI50: > 100 µM (inactive)
[39]
  GI50: > 100 µM (inactive)
[24]
  GI50: > 100 µM (inactive)
[26]
  GI50: > 100 µM (inactive)
[40]
  GI50: > 100 µM (inactive)
[27]
  GI50: > 100 µM (inactive)
[28]
  GI50: > 100 µM
[41]
  GI50: > 100 µM (inactive)
[42]
  GI50: > 100 µM (inactive)
[30]
  GI50: > 100 µM (inactive)
[43]
  GI50: > 100 µM (inactive)
[32]
  GI50: > 100 µM (inactive) and 86.5 µM (inactive)
[44]
  GI50: > 100 µM (inactive)
[33]
  GI50: > 100 µM (inactive)

## O/N=C1/CCCCC1NO (centres undefined)
[45]
  GI50: > 100 µM (inactive)
[1]
  GI50: > 100 µM (inactive)
[2]
  GI50: > 100 µM (inactive)
[46]
  GI50: > 100 µM (inactive)
[34]
  GI50: > 100 µM (inactive)
[3]
  GI50: > 100 µM (inactive)
[4]
  GI50: > 100 µM (inactive)
[47]
  GI50: > 100 µM (inactive)
[5]
  GI50: > 100 µM (inactive)
[6]
  GI50: > 100 µM (inactive)
[48]
  GI50: > 100 µM (inactive)
[7]
  GI50: > 100 µM (inactive)
[8]
  GI50: > 100 µM (inactive)
[35]
  GI50: > 100 µM (inactive)
[49]
  GI50: > 100 µM (inactive)
[36]
  GI50: > 100 µM (inactive)
[37]
  GI50: > 100 µM (inactive)
[50]
  GI50: > 100 µM (inactive)
[9]
  GI50: > 100 µM (inactive)
[51]
  GI50: > 100 µM (inactive)
[10]
  GI50: > 100 µM (inactive)
[11]
  GI50: > 100 µM (inactive)
[12]
  GI50: > 100 µM (inactive)
[13]
  GI50: > 100 µM (inactive)
[14]
  GI50: > 100 µM (inactive)
[52]
  GI50: > 100 µM (inactive)
[15]
  GI50: > 100 µM (inactive)
[16]
  GI50: > 100 µM (inactive)
[17]
  GI50: > 100 µM (inactive)
[18]
  GI50: > 100 µM (inactive)
[53]
  GI50: > 100 µM (inactive)
[54]
  GI50: > 100 µM (inactive)
[19]
  GI50: > 100 µM (inactive)
[55]
  GI50: > 100 µM (inactive)
[38]
  GI50: > 100 µM (inactive)
[20]
  GI50: > 100 µM (inactive)
[21]
  GI50: > 100 µM (inactive)
[23]
  GI50: > 100 µM (inactive)
[39]
  GI50: > 100 µM (inactive)
[24]
  GI50: > 100 µM (inactive)
[25]
  GI50: > 100 µM (inactive)
[26]
  GI50: > 100 µM (inactive)
[56]
  GI50: > 100 µM (inactive)
[40]
  GI50: > 100 µM (inactive)
[27]
  GI50: > 100 µM (inactive)
[28]
  GI50: > 100 µM
[41]
  GI50: > 100 µM (inactive)
[42]
  GI50: > 100 µM (inactive)
[29]
  GI50: > 100 µM (inactive)
[57]
  GI50: > 100 µM (inactive)
[30]
  GI50: > 100 µM (inactive)
[43]
  GI50: > 100 µM (inactive)
[32]
  GI50: > 100 µM (inactive)
[44]
  GI50: > 100 µM (inactive)
[33]
  GI50: > 100 µM (inactive)
